Paper PMC4254016 (Bioorganic & medicinal chemistry, 2014)

Assays:
chorismate mutase EcCM = chorismate mutase EcCM (Escherichia coli, UniProt P0A9J8); type: biochemical, E. coli
ΔpvdA PAO1 = type: cell-based, Pseudomonas aeruginosa; settings: high iron (200 µM FeCl3), 24 hrs
salicylate synthase Irp9 = salicylate synthase Irp9 (Yersinia enterocolitica, UniProt Q9X9I8); type: biochemical
[1] = target: isochorismate-pyruvate lyase PchB (Pseudomonas aeruginosa, UniProt Q51507); type: biochemical
P. aeruginosa PAO1 = assay: Bacterial growth inhibition, wildtype PAO1; type: cell-based, Pseudomonas aeruginosa; settings: high iron (200 µM FeCl3), 24 hrs
ΔpchE PAO1 = type: cell-based, Pseudomonas aeruginosa; settings: high iron (200 µM FeCl3), 24 hrs
PchB = settings: read-out: Ki PchB; cited from earlier work

Chain of isochorismate-pyruvate lyase PchB (Q51507 whole entry): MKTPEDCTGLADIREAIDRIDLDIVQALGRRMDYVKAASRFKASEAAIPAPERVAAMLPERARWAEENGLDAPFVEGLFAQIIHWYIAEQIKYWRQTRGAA
Chain of chorismate mutase EcCM (P0A9J8 1-92): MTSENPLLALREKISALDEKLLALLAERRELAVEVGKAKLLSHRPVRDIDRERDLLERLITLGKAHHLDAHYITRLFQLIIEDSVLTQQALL
Chain of salicylate synthase Irp9 (Q9X9I8 1-434): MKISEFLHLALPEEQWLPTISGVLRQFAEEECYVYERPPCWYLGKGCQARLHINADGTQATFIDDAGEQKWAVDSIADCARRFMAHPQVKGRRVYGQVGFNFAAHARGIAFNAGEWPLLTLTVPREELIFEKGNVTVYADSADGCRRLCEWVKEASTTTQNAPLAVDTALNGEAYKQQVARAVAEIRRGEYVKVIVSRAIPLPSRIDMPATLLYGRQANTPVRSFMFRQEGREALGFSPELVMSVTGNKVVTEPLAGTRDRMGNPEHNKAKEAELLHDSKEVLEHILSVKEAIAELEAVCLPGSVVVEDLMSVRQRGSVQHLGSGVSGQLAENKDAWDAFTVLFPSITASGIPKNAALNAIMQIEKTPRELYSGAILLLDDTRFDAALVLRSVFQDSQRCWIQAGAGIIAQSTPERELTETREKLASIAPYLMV

| SMILES | mode of inhibition of EcCM (chorismate mutase EcCM) | EC50 growth inhibition ΔpvdA p.a. (ΔpvdA PAO1) | mode of inhibition of Irp9 (salicylate synthase Irp9) | mode of inhibition of PchB [1] | EC50 growth inhibition PAO1 p.a. (P. aeruginosa PAO1) | EC50 growth inhibition ΔpchE p.a. (ΔpchE PAO1) | Ki (PchB) [mM] |
| --- | --- | --- | --- | --- | --- | --- | --- |
| COC(=O)Oc1c([N+](=O)[O-])cc2oc(=O)sc2c1[N+](=O)[O-] [Compound 10] | competitive inhibitors | did not cause growth inhibition | competitive inhibitor | competitive inhibitors | did not cause growth inhibition | did not cause growth inhibition |  |
| O=P(O)(O)C12CC3CC(CC(C3)C1)C2 [adamantane-1-phosphonate] |  |  |  |  |  |  | > 5 |
